Structures are written as SMILES. Entries after “also recorded” stand apart in the source; their conditions may differ. Where two headings read alike, the source gives them in different places.

Consider 15 molecules from article PMC4757855, “Discovery of high affinity inhibitors of Leishmania donovani N-myristoyltransferase” (Medchemcomm, 2015).

Data set [1] is described as follows: Stability on incubation over a wide pH range. The data set is classed as physicochemical. The note with it: 37 °C, pH 1–10, 24 hours, data not shown. The source says:
The binding mode of 10j to Leishmania major NMT (98% sequence identity to LdNMT with closely superimposable ligand binding sites)[14],[29] was confirmed by determination of the crystal structure of the ternary complex of LmNMT, myrisotyl-CoA and 10j (PDB ID:; 5a27). The inhibitor binds in the expected site adjacent to the enzyme's C-terminal carboxylate to which its piperidine forms an ion pairing interaction. This and other key interactions are conserved in a related series in PvNMT.[24] […] This ‘ring opening’ phenomenon has been observed in related compounds within the program,[27] although to our knowledge, it has not been reported elsewhere. The origin of the ring-opened species observed in the crystals remains unclear, and further investigation is underway to determine the cause of this discrepancy (such as potential radiation damage). As characterisation of the compounds was consistent with the proposed oxadiazoles, the development of the series was continued.

Another data set deals with L. donovani amastigotes. Kind of data set: L. donovani ex-vivo amastigotes inhibition assay (alamar blue). The data set is classed as cell-based, Leishmania donovani. The following applies: for EC50: Leishmania donovani, ex vivo L. donovani amastigotes, 72 hour incubation, read-out: Ld EC50. On the procedure:
L. donovani ex-vivo amastigotes inhibition assay. Assays were carried out as
described by Paape and colleagues.
recorded with a 590nm±10nm bandpass filter, POLARstar Optima). Parasites cultured
[1-(readout-medium)/(positive-medium)] x 100%. Assays were carried out in
Macrophage toxicity test. Assays were carried out as described by Paape and […]
(The colour change of resazurin is a common sign of viable cells or microbes.)

Data set [2] concerns bone marrow-derived macrophage (BMDM). The following applies: 72 h.
Description: (§5) colleagues.6 Briefly, bone marrow-derived macrophage (BMDM, 4.2 × 10^4/well of
(§6) 96-well plate ) were incubated at the relevant concentrations of test compounds in
(§7) DMEM medium containing 4% L929 cell and 10% FCS (fetal calf serum). Cells were
(§8) incubated at 37 °C and 5% CO2 for 72 hours. Aalamar blue (10% v/v) was added to
(§9) measuring the fluorescence as described above. Medium without cells containing the
(§10) corresponding concentration of compound was used as a medium control. Assays
were performed in duplicate.
Data set [3] has as its target LdNMT (Leishmania donovani, UniProt D0AB09). Kind of data set: biochemical. The data set is classed as biochemical. The note with it: for Ki: apparent Ki calculated from IC50 with Cheng–Prusoff equation. On the procedure: (§1) Enzyme assay information. All IC 50 determinations were carried out using a 7-diethylamine-3-(4’maleimidylphenyl)-4-methylcoumarin (CPM) fluorescence assay, as described by previously. 2–4 The HsNMT1, PfNMT and PvNMT assays are as described in the literature, for LdNMT the final enzyme concentration and peptide substrates are: [LdNMT]: 400 ng/mL; LdNMT Peptide Substrate: Homo sapiens […]
(§2) was 4.0 μM. IC 50 of an inhibitor was calculated by a nonlinear regression analysis using GraFit 7.0.1 version (Erithacus Software Limited, UK).The values are the mean […]
(§3) Ki values were calculated from the experimentally determined IC 50 values, the substrate concentration ([S]) and the Michaelis-Menten constant (K m) as described by […]

Data set [4] relates to LdNMT. Description: biochemical. It counts as biochemical. On the procedure:
as §1, §2, §3

A further data set addresses T1, HsNMT1 (Homo sapiens, UniProt P30419).
T1 sequence (P30419 1-496): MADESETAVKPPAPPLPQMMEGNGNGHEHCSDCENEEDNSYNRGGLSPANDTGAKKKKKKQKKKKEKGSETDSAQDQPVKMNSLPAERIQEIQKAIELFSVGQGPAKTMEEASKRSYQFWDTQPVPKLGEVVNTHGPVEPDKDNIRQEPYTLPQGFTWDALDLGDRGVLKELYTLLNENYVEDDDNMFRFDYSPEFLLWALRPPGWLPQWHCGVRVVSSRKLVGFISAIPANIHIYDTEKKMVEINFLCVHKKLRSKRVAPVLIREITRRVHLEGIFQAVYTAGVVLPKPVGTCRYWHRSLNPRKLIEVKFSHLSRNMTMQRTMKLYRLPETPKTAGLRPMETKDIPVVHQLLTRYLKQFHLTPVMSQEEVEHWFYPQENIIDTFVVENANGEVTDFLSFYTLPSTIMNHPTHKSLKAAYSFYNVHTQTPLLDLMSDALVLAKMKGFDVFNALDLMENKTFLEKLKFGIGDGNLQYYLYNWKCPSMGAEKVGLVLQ
Kind of data set: HsNMT1 enzyme assay (CPM fluorescence). It counts as biochemical. The note with it: apparent Ki calculated from IC50 with Cheng–Prusoff equation, read-out: HsNMT Ki. On the procedure: Enzyme assay information. All IC 50 determinations were carried out using a 7-diethylamine-3-(4’maleimidylphenyl)-4-methylcoumarin (CPM) fluorescence assay, as described by previously. […]
IC 50 of an inhibitor was calculated by a nonlinear regression analysis using GraFit 7.0.1 version (Erithacus Software Limited, UK).The values are the mean […]
as §3

For the next data set, the target named is T2, PfNMT (Plasmodium falciparum, UniProt Q9U419).
T2 sequence (Q9U419 1-410): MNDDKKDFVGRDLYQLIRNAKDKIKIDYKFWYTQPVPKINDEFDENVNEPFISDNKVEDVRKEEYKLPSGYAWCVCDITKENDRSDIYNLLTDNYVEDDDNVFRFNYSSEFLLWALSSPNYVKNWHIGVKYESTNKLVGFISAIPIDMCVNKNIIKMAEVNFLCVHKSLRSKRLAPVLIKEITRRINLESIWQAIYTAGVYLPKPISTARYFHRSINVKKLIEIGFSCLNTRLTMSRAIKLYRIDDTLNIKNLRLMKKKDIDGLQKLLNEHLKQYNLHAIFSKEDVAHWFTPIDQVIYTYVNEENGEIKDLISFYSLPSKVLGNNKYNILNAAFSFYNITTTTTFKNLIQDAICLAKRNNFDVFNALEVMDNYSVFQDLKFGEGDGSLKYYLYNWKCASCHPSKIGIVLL
Description: biochemical. The data set is classed as biochemical. The following applies: for PfNMT LE: LE = [–log(Ki)](1.374)/(no. of heavy atoms); for Ki: apparent Ki calculated from IC50 with Cheng–Prusoff equation. On the procedure:
as §1
(§4) p60src (2-16) with sequence […]-NH 2 and the final concentration was 4.0 μM. IC 50 of an inhibitor was calculated by a nonlinear regression analysis using GraFit 7.0.1 version (Erithacus Software Limited, UK).The values are the mean value of two determinations; standard deviation is within 20% of the IC 50 unless […]
as §3

The next data set concerns the target T3, PvNMT (Plasmodium vivax, UniProt A5K1A2).
T3 sequence (A5K1A2 1-410): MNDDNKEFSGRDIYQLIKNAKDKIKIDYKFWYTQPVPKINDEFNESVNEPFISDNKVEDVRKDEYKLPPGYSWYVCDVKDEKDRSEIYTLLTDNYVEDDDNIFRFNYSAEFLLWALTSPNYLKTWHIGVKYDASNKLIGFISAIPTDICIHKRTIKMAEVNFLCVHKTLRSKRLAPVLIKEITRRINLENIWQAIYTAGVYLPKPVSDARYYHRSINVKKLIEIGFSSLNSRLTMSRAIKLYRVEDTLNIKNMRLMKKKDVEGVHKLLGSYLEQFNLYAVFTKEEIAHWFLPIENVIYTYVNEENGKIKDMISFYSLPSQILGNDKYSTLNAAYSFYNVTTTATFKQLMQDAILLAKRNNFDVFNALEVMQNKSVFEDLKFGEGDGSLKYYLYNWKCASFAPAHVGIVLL
Kind of data set: biochemical. The data set is classed as biochemical. The following applies: for PvNMT LE: LE = [–log(Ki)](1.374)/(no. of heavy atoms); for Ki: apparent Ki calculated from IC50 with Cheng–Prusoff equation. On the procedure:
as §1, §4, §3

The subject of data set [5] is bone marrow-derived macrophage (BMDM). Description: Macrophage toxicity test (alamar blue). The note with it: top concentration tested 90 μM.
Description: as §5, §6, §7, §8, §9, §10
were performed in duplicate.

Chain of LdNMT (Leishmania donovani, UniProt D0AB09) (D0AB09 entry or part of it): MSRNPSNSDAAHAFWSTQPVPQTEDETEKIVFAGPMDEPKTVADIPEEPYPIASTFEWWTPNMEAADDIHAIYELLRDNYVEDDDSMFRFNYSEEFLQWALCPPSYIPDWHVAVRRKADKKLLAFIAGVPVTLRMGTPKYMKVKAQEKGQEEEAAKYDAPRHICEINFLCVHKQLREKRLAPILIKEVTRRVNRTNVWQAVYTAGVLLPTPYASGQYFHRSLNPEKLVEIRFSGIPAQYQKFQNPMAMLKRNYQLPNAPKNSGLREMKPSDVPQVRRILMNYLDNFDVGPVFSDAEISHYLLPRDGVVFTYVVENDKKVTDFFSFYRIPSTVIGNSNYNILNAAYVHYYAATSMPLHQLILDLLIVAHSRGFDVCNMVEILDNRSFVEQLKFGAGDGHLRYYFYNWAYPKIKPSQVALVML

Broadly, the EC50 is the midpoint of the concentration-response curve. Take `COc1cccc(Cc2noc(-c3cc(Cl)ccc3OC3CCNCC3)n2)c1` [Compound 10j]: in [1], the degradation on incubation entry is “no degradation”. In addition, in the data set on L. donovani amastigotes, the EC50 was 6.7 µM. In data set [2], the “Macrophage LD50” value was found to be 18.0 µM.

Regarding `COc1cccc(Cc2noc(-c3cc(C)ccc3OC3CCNCC3)n2)c1` [Compound 10i], the Ki on LdNMT [3] ([…], read-out: LdNMT Ki) is 0.24 µM.

Turning to `COc1cccc(Cc2noc(-c3ccc(Br)cc3OC3CCNCC3)n2)c1` [Compound 10h], the Ki on LdNMT [3] ([…], read-out: LdNMT Ki) was 0.68 µM.

On to `COc1cccc(Cc2noc(-c3ccc(Cl)cc3OC3CCNCC3)n2)c1` [Compound 10f], for which the Ki on LdNMT [3] (LdNMT Ki, Km 32.7 μM, substrate 4.0 μM) was […].

In the case of `COc1cccc(Cc2noc(-c3ccccc3OC3CCNCC3)n2)c1` [Compound 10a], the “LdNMT LE” value at LdNMT [3] is listed as 0.37. Further, the “improvement in LdNMT enzyme affinity” value at LdNMT [3] (5 relative to 1, 10a relative to 6) is reported as ~ 4 fold. Besides, the “selectivity in favour of the parasite enzyme (LdNMT over HsNMT)” value in the data set on LdNMT [4] was 20 fold. Also, in the data set on L. donovani amastigotes, the EC50 is above 30 µM. Further, the Ki at HsNMT1 was 1.24 µM.

In the case of `COc1cccc(Cc2noc(-c3ccc(F)cc3OC3CCNCC3)n2)c1` [Compound 10g], in data set [2], the “Macrophage LD50” value was found to be 29.5 µM.

Regarding `COc1cccc(Cc2noc(-c3cccc(C)c3OC3CCNCC3)n2)c1` [Compound 10c], at LdNMT [3], the “LdNMT LE” value was found to be 0.29. The Ki was 1.43 µM on LdNMT [3] ([…], read-out: LdNMT Ki) and 7.44 µM on HsNMT1.

For the molecule `COc1cccc(Cc2noc(-c3cccc(OC)c3OC3CCNCC3)n2)c1` [Compound 10b], the “LdNMT LE” value on LdNMT [3] stood at 0.26. Besides, the Ki was 4.02 µM on LdNMT [3] ([…], read-out: LdNMT Ki) and 7.23 µM on HsNMT1.

`COc1cccc(COC(=O)c2ccccc2OC2CCNCC2)c1` [Compound 6]: on LdNMT [3], the “LdNMT LE” value was 0.36. For the same molecule, the Ki was 0.28 µM on LdNMT [3] ([…], read-out: LdNMT Ki); 6 µM on PfNMT; 2.42 µM at PvNMT; above 100 µM at HsNMT1. Further, the “PfNMT LE” value at PfNMT came out at 0.29. For the same molecule, at PvNMT, the “PvNMT LE” value was found to be 0.31.

With `COc1cccc(Cc2noc(-c3ccc(OC)cc3OC3CCNCC3)n2)c1` [Compound 10e], the Ki on LdNMT [3] ([…], read-out: LdNMT Ki) is 3.04 µM.

The term IC50 denotes the concentration needed to halve the response being measured. A higher IC50 goes with a need for much substance. `COc1cccc(COC(=O)c2sccc2OC2CCNCC2)c1` [Compound 5]: the “LdNMT LE” value at LdNMT [3] is reported as 0.35. Also, the “improvement in LdNMT enzyme affinity” value on LdNMT [3] was 8 fold. The Ki on LdNMT [3] ([…], read-out: LdNMT Ki) is 0.73 µM; at PfNMT it was above 100 µM; on PvNMT, 6.5 µM; on HsNMT1, above 100 µM. Also, on LdNMT [3] (experimentally determined, substrate 4.0 μM), the IC50 is 0.82 ± 0.14 µM. Besides, the “PvNMT LE” value at PvNMT turned out to be 0.30.

For the molecule `COc1cccc(COC(=O)c2sc3ccccc3c2OC2CCNCC2)c1` [Compound 1], the Ki is 5.82 µM at LdNMT [3] ([…], read-out: LdNMT Ki); 0.83 µM on PfNMT; 0.08 µM at PvNMT; 3.2 µM on HsNMT1. Besides, on PfNMT, the “PfNMT LE” value is 0.30. Also, the “PvNMT LE” value on PvNMT is on record as 0.35.

For the molecule `Cc1nn(C)c(C)c1Cc1nnc(-c2cc(Cl)ccc2OC2CCNCC2)o1` [Compound 13], the Ki on LdNMT [3] ([…], read-out: LdNMT Ki) is 0.01 µM. For the same molecule, the EC50 in the data set with L. donovani amastigotes is above 50 µM. Further, the “effect against ex vivo amastigotes” value in the data set on L. donovani amastigotes (up to 50 μM) is listed as “no observed effect; also recorded: failed to inhibit”. Moreover, in data set [2], the “Macrophage LD50” value was above 90 µM. In addition, the “macrophage toxicity” value in [5] was “did not display any macrophage toxicity; also recorded: no macrophage toxicity”.

With `COc1cccc(Cc2noc(-c3cc(OC)ccc3OC3CCNCC3)n2)c1` [Compound 10k], the EC50 with L. donovani amastigotes came out at 13.5 µM. In data set [2], the “Macrophage LD50” value is 27.9 µM.

For the molecule `COc1cccc(Cc2noc(-c3ccc(C)cc3OC3CCNCC3)n2)c1` [Compound 10d], at LdNMT [3], the “LdNMT LE” value was 0.26. Moreover, the Ki at LdNMT [3] ([…], read-out: LdNMT Ki) was 5.18 µM; on HsNMT1, 4.64 µM.
